Reference: ChEMBL document CHEMBL1130561, “Batrachotoxin binding site antagonists” (Bioorg Med Chem Lett, 1997)

What was measured:
[1] = target: Sodium channel alpha subunits; brain (Types I, II, III) (Homo sapiens, UniProt P35498+Q99250+Q9NY46); test: Antagonism of batrachotoxin-mediated sodium ion uptake into cultured neuroblastoma cells; assay type: functional
[2] = target: Sodium channel alpha subunits; brain (Types I, II, III) (Rattus norvegicus, UniProt P04775+P04774+P08104); test: Inhibition of [3H]batrachotoxin binding to rat brain neuronal membranes; assay type: cell membranes, Membrane

| Compound | IC50 [1] [µM] | IC50 [2] [µM] |
| --- | --- | --- |
| CO[C@]12CCC3(C)C(CCC[C@@]3([C@H](O)C[C@@H](CCOC(=O)c3ccccc3)CN(C)C)O1)C2 | 0.5 | 3.6 |
| CCCCNc1ccc(C(=O)OCCN(C)C)cc1 [TETRACAINE] | – | 6 |
| CO[C@]12CCC3(C)C(CCC[C@@]3(CO)O1)C2 | 1000 | 2000 |
| COc1ccc(C(=O)O[C@H]2CC[C@@]3(C)[C@@H]4CC[C@H]5[C@]6(O)C[C@H](O)[C@@]7(O)[C@@H](CN8C[C@@H](C)CC[C@H]8[C@@]7(C)O)[C@]6(O)C[C@@]53O[C@]24O)cc1OC [VERATRIDINE] | – | 22 |
| CN(C)CCC[C@@H](O)[C@@]12CCCC3C[C@@](OCc4ccccc4)(CCC31C)O2 | 4 | 4.5 |
| COC[C@H](CCOC(=O)c1ccccc1)C[C@@H](O)[C@@]12CCCC3C[C@@](OC)(CCC31C)O2 | 5 | 10 |
| CO[C@]12CCC3(C)C(CCC[C@@]3([C@H](O)CCCN(C)C)O1)C2 | 200 | 130 |
| CC12CC[C@]3(OCc4cccc(Br)c4)CC1CCC[C@@]2(CO)O3 | 80 | 10 |
